# Test results published in patent publication US10995260B2, “Methods for determining an optimal surfactant structure for oil recovery” (University of Wyoming, priority 2017, dated 2021).
# Assay: Dynamic interfacial tension of surfactant solution/crude oil (rising/captive bubble tensiometry)
# Type: physicochemical
# Details: time for IFT to reach half of its value between γo and γm; 0.1% wt surfactant, municipal water/crude oil, ambient conditions
# Experimental: Interfacial tension tests were carried out in accordance with the invention. Dynamic IFT and contact angles were measured using rising/captive bubble tensiometry enhanced by image acquisition with a high-resolution Charged Coupled Device (CCD) digital camera and apochromatically-corrected lens. The apparatus includes a Hastelloy measurement cell, a Hastelloy dual-cylinder pulse-free Quizix pump (to provide constant flow rate and pressure), a temperature control module, a data acquisition computer, an oven, and an in-line density meter (Anton Paar DMA HPM) to measure the density of fluids at actual experimental conditions. The system tolerates reservoir conditions with pressures and temperatures up to 10,000 psi and 150° C., respectively (V. Mirchi, S. Saraji, L. Goual, M. Piri, Dynamic interfacial tension and wettability of shale in the presence of surfactants at reservoir conditions, Fuel, vol. 148, pp. 127-138, 2015).
# For IFT measurements, after establishing ambient (e.g., 14.7 psi and 20° C.) or reservoir conditions (e.g., 6840 psi and 120° C.) in a cell saturated with brine, a bubble of crude oil was created inside the measurement cell through a needle (0.3-1.6 mm outside diameter). Images of oil bubbles were captured at 5-second intervals to measure dynamic interfacial tension. IFT values were obtained by fitting the drop profile to the Young-Laplace equation using Axisymetric Drop Shape Analysis (ADSA) software.
# A series of dynamic IFT measurements with municipal water and crude oil were performed at ambient conditions to examine the surface activity of selected surfactants. FIGS. 5A-5F present dynamic IFT results of a homologous series of nonionic surfactant solutions with 0.1% wt concentration, which is above the critical micelle concentration (CMC) of all the surfactants studied. The size of the hydrophobic and hydrophilic parts of the surfactants were altered independently and their impact on oil/brine interfacial tension was investigated.
# In addition, the dynamic IFT of certain surfactants was measured at reservoir conditions. In particular, the impact of elevated temperatures and pressures on the performance of these surfactants was evaluated. IFT values of crude oil and surfactant solutions were measured at 6840 psi and 120° C.
# As shown by Equation 1, three typical regions of dynamic IFT reduction exist: (I) induction region, (II) rapid fall region, and (III) mesoequilibrium region (X. Y. Hua, M. J. Rosen, Dynamic surface tension of aqueous surfactant solutions: I. Basic parameters, Journal of Colloid and Interface Science, vol. 124, no. 2, pp. 652-659, 1988). log(γ0−γt)−log(γt−γm)=n log t−n log t* (1)
# In Equation 1, γt is the IFT of surfactant solution at time t, γm is the mesoequilibrium interfacial tension (when γt is almost stabilized), γo is the IFT in the absence of surfactant, and t* is the required time for IFT to reach half of its value between γo and γm. The value of n is a constant number related to the structure of surfactants and correlates to the difference between surfactants' adsorption and desorption. Increasing nonionic surfactants' polyoxyethylene chain length reduces the value of n (T. Gao, M. J. Rosen, Dynamic surface tension of aqueous surfactant solutions: 7. physical significance of dynamic parameters and the induction period, Journal of Colloid and Interface Science, vol. 172, no. 1, pp. 242-248, 1995).
row,t* [min],Substance
1,16.5,"CH3(CH2)8-10(OC2H4)2.5OH [CH2 8-10, EO 2.5]"
2,12.3,"CH3(CH2)8-10(OC2H4)6-6.5OH [CH2 8-10, EO 6]"
3,11.6,"CH3(CH2)8-10(OC2H4)8.3OH [CH2 8-10, EO 8]"
4,7.83,"CH3(CH2)11-13(OC2H4)8.2OH [CH2 11-14, EO 8.2]"
5,23,"CH3(CH2)11-14(OC2H4)3OH [CH2 11-14, EO 3]"
6,9.3,"CH3(CH2)11-14(OC2H4)7.25OH [CH2 11-14, EO 7.25]"
